Measurements as given in patent US7138361B2, “Herbicidal heterocycles” (E. I. du Pont de Nemours and Company, priority 2000, dated 2006).

Columns and labels:
Type in all cases: in vivo
Sunflower [1] = assay: Test C preemergence; conditions: Rate 500 g/ha, visual evaluation after 12 to 14 days
[2] = test system: barnyardgrass (Echinochloa crus-galli); assay: Test B postemergence
Summary of the method: (§1)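 Ratings on a 0 to 100 visual scale (100 complete control) compare treated plants with controls 13 to 15 days after application. Treatments were pre- or postemergence sprays of compound in non-phytotoxic solvent with surfactant.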

[3] = test system: velvetleaf (Abutilon theophrasti); assay: Test B postemergence
Summary of the method: as §1

[4] = test system: blackgrass (Alopecurus myosuroides); assay: Test B postemergence
Summary of the method: as §1

[5] = test system: wheat (Triticum aestivum); assay: Test B postemergence
Summary of the method: as §1

[6] = test system: giant foxtail (Setaria faberii); assay: Test B postemergence
Summary of the method: as §1

wild oat (Avena fatua) = assay: Test B postemergence
Summary of the method: as §1

[7] = test system: morning glory (Ipomoea hederacea); assay: Test B postemergence
Summary of the method: as §1

[8] = test system: lambsquarters (Chenopodium album); assay: Test B postemergence
Summary of the method: as §1

[9] = test system: pigweed (Amaranthus retroflexus); assay: Test B postemergence
Summary of the method: as §1

[10] = test system: Surinam grass (Brachiaria decumbens); assay: Test B postemergence
Summary of the method: as §1

[11] = test system: crabgrass (Digitaria sanguinalis); assay: Test B postemergence
Summary of the method: as §1

corn (Zea mays) = assay: Test B postemergence
Summary of the method: as §1

[12] = test system: cocklebur (Xanthium strumarium); assay: Test B postemergence
Summary of the method: as §1

[13] = test system: velvetleaf (Abutilon theophrasti); assay: Test C preemergence; conditions: for Plant response rating (0 to 100), Velvetleaf: Rate 500 g/ha, visual evaluation after 12 to 14 days
Summary of the method: (§2)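 Herbicidal effect is a visual 0–100 score (100 = complete control) assigned versus untreated plants, 12 to 14 days after spraying in the greenhouse. Test compounds were applied in a non-phytotoxic, surfactant-containing solvent.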

[14] = test system: goosegrass (Eleusine indica); assay: Test C preemergence; conditions: for Plant response rating (0 to 100), Goosegrass: Rate 500 g/ha, visual evaluation after 12 to 14 days
Summary of the method: as §2

[15] = test system: bermudagrass (Cynodon dactylon); assay: Test C preemergence; conditions: for Plant response rating (0 to 100 where 0 is no effect and 100 is complete control), Bermudagrass: Rate 500 g/ha, visual evaluation after 12 to 14 days
Summary of the method: as §2

Sunflower [16] = assay: Test C preemergence; conditions: Rate 125 g/ha; scale 0 to 100, 0 no effect, 100 complete control
soybean (Glycine max) = assay: Test C preemergence; conditions: for Plant response rating (0 to 100), Soybean: Rate 500 g/ha, visual evaluation after 12 to 14 days
Summary of the method: as §2

kochia (Kochia scoparia) = assay: Test C preemergence; conditions: for Plant response rating (0 to 100), Kochia: Rate 500 g/ha, visual evaluation after 12 to 14 days
Summary of the method: as §2

[17] = test system: crabgrass (Digitaria sanguinalis); assay: Test C preemergence; conditions: for Plant response rating (0 to 100), Crabgrass: Rate 500 g/ha, visual evaluation after 12 to 14 days
Summary of the method: as §2

[18] = test system: cocklebur (Xanthium strumarium); assay: Test C preemergence; conditions: for Plant response rating (0 to 100), Cocklebur: Rate 500 g/ha, visual evaluation after 12 to 14 days
Summary of the method: as §2

Sunflower [19] = assay: Test C preemergence; conditions: Rate 250 g/ha, scale 0 to 100, 0 no effect, 100 complete control
[20] = Rate 125 g/ha, scale 0 to 100, 0 no effect, 100 complete control
[21] = Rate 500 g/ha, scale 0 to 100, 0 is no effect, 100 is complete control, 13 to 15 days
[22] = preemergence, Rate 62 g/ha, scale 0 to 100
[23] = preemergence, Rate 250 g/ha, scale 0 to 100, 0 no effect, 100 complete control
[24] = Rate 500 g/ha, scale 0 (no effect) to 100 (complete control), 13 to 15 days

SMILES: CCC(CC)c1ccn(C2OCN(c3cccc(OC(F)F)c3)C2=O)n1 (centres unmarked) [Compound 131]
- Plant response rating (0 to 100), Sunflower (Sunflower [1]): 20
- Plant response rating, Barnyardgrass [2, 20]: 80
- Plant response rating, Barnyardgrass [2, 21]: 100
- Plant response rating, Velvetleaf [3, 20]: 0
- Plant response rating, Blackgrass [4, 20]: 0
- Plant response rating, Blackgrass [4, 21]: 0
- Plant response rating, Wheat [5, 20]: 0
- Plant response rating, Foxtail, Giant [6, 20]: 20
- Plant response rating, Wild Oat (wild oat (Avena fatua); [20]): 20
- Plant response rating, Morningglory [7, 20]: 20
- Plant response rating, Lambsquarters [8, 20]: 90
- Plant response rating, Pigweed [9, 20]: 80
- Plant response rating, Surinam grass [10, 20]: 0
- Plant response rating, Surinam grass [10, 21]: 30
- Plant response rating, Crabgrass [11, 20]: 0
- Plant response rating, Corn (corn (Zea mays); [20]): 0
- Plant response rating, Corn (corn (Zea mays); [21]): 20
- Plant response rating, Cocklebur [12, 20]: 30
- Plant response rating, Cocklebur [12, 21]: 70
- Plant response rating, Velvetleaf [13, 20]: 30
- Plant response rating, Velvetleaf [13, 22]: 20
- Plant response rating (0 to 100), Velvetleaf ([13]; preemergence): 70
- Plant response rating, Velvetleaf [13, 23]: 70
- Plant response rating, Goosegrass [14, 20]: 100
- Plant response rating, Goosegrass [14, 22]: 100
- Plant response rating (0 to 100), Goosegrass ([14]; preemergence): 100
- Plant response rating, Goosegrass [14, 23]: 100
- Plant response rating, Bermudagrass [15, 20]: 100
- Plant response rating, Bermudagrass [15, 22]: 100
- Plant response rating (0 to 100 where 0 is no effect and 100 is complete control), Bermudagrass ([15]; preemergence): 100
- Plant response rating, Bermudagrass [15, 23]: 100
- Plant response rating, Sunflower (Sunflower [16]): 20
- Plant response rating, Soybean (soybean (Glycine max); [20]): 0
- Plant response rating, Soybean (soybean (Glycine max); [22]): 0
- Plant response rating (0 to 100), Soybean (soybean (Glycine max); preemergence): 40
- Plant response rating, Soybean (soybean (Glycine max); [23]): 40
- Plant response rating, Kochia (kochia (Kochia scoparia); [20]): 100
- Plant response rating, Kochia (kochia (Kochia scoparia); [22]): 100
- Plant response rating (0 to 100), Kochia (kochia (Kochia scoparia); preemergence): 100
- Plant response rating, Kochia (kochia (Kochia scoparia); [23]): 100
- Plant response rating, Crabgrass [17, 20]: 100
- Plant response rating, Crabgrass [17, 22]: 100
- Plant response rating (0 to 100), Crabgrass ([17]; preemergence): 100
- Plant response rating, Crabgrass [17, 23]: 100
- Plant response rating, Cocklebur [18, 20]: 0
- Plant response rating, Cocklebur [18, 22]: 0
- Plant response rating (0 to 100), Cocklebur ([18]; preemergence): 30
- Plant response rating, Cocklebur [18, 23]: 30
- Plant response rating, Sunflower (Sunflower [19]): 20

SMILES: COc1cc(N2CCC(n3ccc(C(C)(C)C)n3)C2=O)ccc1Cl (centres unmarked) [Compound 117]
- Plant response rating (0 to 100), Sunflower (Sunflower [1]): 65
- Plant response rating, Barnyardgrass [2, 20]: 40
- Plant response rating, Barnyardgrass [2, 21]: 90
- Plant response rating, Velvetleaf [3, 20]: 70
- Plant response rating, Blackgrass [4, 20]: 0
- Plant response rating, Blackgrass [4, 21]: 0
- Plant response rating, Wheat [5, 20]: 30
- Plant response rating, Foxtail, Giant [6, 20]: 0
- Plant response rating, Wild Oat (wild oat (Avena fatua); [20]): 40
- Plant response rating, Morningglory [7, 20]: 70
- Plant response rating, Lambsquarters [8, 20]: 90
- Plant response rating, Pigweed [9, 20]: 80
- Plant response rating, Surinam grass [10, 20]: 30
- Plant response rating, Surinam grass [10, 21]: 40
- Plant response rating, Crabgrass [11, 20]: 30
- Plant response rating, Corn (corn (Zea mays); [20]): 0
- Plant response rating, Corn (corn (Zea mays); [21]): 0
- Plant response rating, Cocklebur [12, 20]: 90
- Plant response rating, Cocklebur [12, 21]: 100
- Plant response rating, Velvetleaf [13, 20]: 90
- Plant response rating, Velvetleaf [13, 22]: 80
- Plant response rating (0 to 100), Velvetleaf ([13]; preemergence): 100
- Plant response rating, Velvetleaf [13, 23]: 100
- Plant response rating, Goosegrass [14, 20]: 100
- Plant response rating, Goosegrass [14, 22]: 100
- Plant response rating (0 to 100), Goosegrass ([14]; preemergence): 100
- Plant response rating, Goosegrass [14, 23]: 100
- Plant response rating, Bermudagrass [15, 20]: 100
- Plant response rating, Bermudagrass [15, 22]: 100
- Plant response rating (0 to 100 where 0 is no effect and 100 is complete control), Bermudagrass ([15]; preemergence): 100
- Plant response rating, Bermudagrass [15, 23]: 100
- Plant response rating, Sunflower (Sunflower [16]): 40
- Plant response rating, Soybean (soybean (Glycine max); [20]): 100
- Plant response rating, Soybean (soybean (Glycine max); [22]): 100
- Plant response rating (0 to 100), Soybean (soybean (Glycine max); preemergence): 100
- Plant response rating, Soybean (soybean (Glycine max); [23]): 100
- Plant response rating, Kochia (kochia (Kochia scoparia); [20]): 100
- Plant response rating, Kochia (kochia (Kochia scoparia); [22]): 90
- Plant response rating (0 to 100), Kochia (kochia (Kochia scoparia); preemergence): 100
- Plant response rating, Kochia (kochia (Kochia scoparia); [23]): 100
- Plant response rating, Crabgrass [17, 20]: 100
- Plant response rating, Crabgrass [17, 22]: 100
- Plant response rating (0 to 100), Crabgrass ([17]; preemergence): 100
- Plant response rating, Crabgrass [17, 23]: 100
- Plant response rating, Cocklebur [18, 20]: 10
- Plant response rating, Cocklebur [18, 22]: 0
- Plant response rating (0 to 100), Cocklebur ([18]; preemergence): 85
- Plant response rating, Cocklebur [18, 23]: 50
- Plant response rating, Sunflower (Sunflower [19]): 60

SMILES: CCC(C)c1ccn(C2CCN(c3ccc(F)c(C(F)(F)F)c3)C2=O)n1 (centres unmarked) [Compound 145]
- Plant response rating (0 to 100), Sunflower (Sunflower [1]): 50
- Plant response rating, Barnyardgrass [2, 20]: 0
- Plant response rating, Barnyardgrass [2, 24]: 90
- Plant response rating, Velvetleaf [3, 20]: 0
- Plant response rating, Velvetleaf [3, 24]: 30
- Plant response rating, Blackgrass [4, 20]: 0
- Plant response rating, Blackgrass [4, 24]: 0
- Plant response rating, Wheat [5, 20]: 0
- Plant response rating, Wheat [5, 24]: 0
- Plant response rating, Foxtail, Giant [6, 20]: 0
- Plant response rating, Foxtail, Giant [6, 24]: 40
- Plant response rating, Wild Oat (wild oat (Avena fatua); [20]): 0
- Plant response rating, Wild Oat (wild oat (Avena fatua); [24]): 0
- Plant response rating, Morningglory [7, 20]: 0
- Plant response rating, Morningglory [7, 24]: 0
- Plant response rating, Lambsquarters [8, 20]: 80
- Plant response rating, Lambsquarters [8, 24]: 100
- Plant response rating, Pigweed [9, 20]: 0
- Plant response rating, Pigweed [9, 24]: 80
- Plant response rating, Surinam grass [10, 20]: 0
- Plant response rating, Surinam grass [10, 24]: 0
- Plant response rating, Crabgrass [11, 20]: 0
- Plant response rating, Crabgrass [11, 24]: 0
- Plant response rating, Corn (corn (Zea mays); [20]): 0
- Plant response rating, Corn (corn (Zea mays); [24]): 0
- Plant response rating, Cocklebur [12, 20]: 0
- Plant response rating, Cocklebur [12, 24]: 0
- Plant response rating, Velvetleaf [13, 20]: 0
- Plant response rating, Velvetleaf [13, 22]: 0
- Plant response rating (0 to 100), Velvetleaf ([13]; preemergence): 20
- Plant response rating, Velvetleaf [13, 23]: 0
- Plant response rating, Goosegrass [14, 20]: 100
- Plant response rating, Goosegrass [14, 22]: 90
- Plant response rating (0 to 100), Goosegrass ([14]; preemergence): 100
- Plant response rating, Goosegrass [14, 23]: 100
- Plant response rating, Bermudagrass [15, 20]: 100
- Plant response rating, Bermudagrass [15, 22]: 60
- Plant response rating (0 to 100 where 0 is no effect and 100 is complete control), Bermudagrass ([15]; preemergence): 100
- Plant response rating, Bermudagrass [15, 23]: 100
- Plant response rating, Sunflower (Sunflower [16]): 0
- Plant response rating, Soybean (soybean (Glycine max); [20]): 30
- Plant response rating, Soybean (soybean (Glycine max); [22]): 20
- Plant response rating (0 to 100), Soybean (soybean (Glycine max); preemergence): 60
- Plant response rating, Soybean (soybean (Glycine max); [23]): 30
- Plant response rating, Kochia (kochia (Kochia scoparia); [20]): 100
- Plant response rating, Kochia (kochia (Kochia scoparia); [22]): 100
- Plant response rating (0 to 100), Kochia (kochia (Kochia scoparia); preemergence): 100
- Plant response rating, Kochia (kochia (Kochia scoparia); [23]): 100
- Plant response rating, Crabgrass [17, 20]: 100
- Plant response rating, Crabgrass [17, 22]: 100
- Plant response rating (0 to 100), Crabgrass ([17]; preemergence): 100
- Plant response rating, Crabgrass [17, 23]: 100
- Plant response rating, Cocklebur [18, 20]: 20
- Plant response rating, Cocklebur [18, 22]: 0
- Plant response rating (0 to 100), Cocklebur ([18]; preemergence): 60
- Plant response rating, Cocklebur [18, 23]: 50
- Plant response rating, Sunflower (Sunflower [19]): 50
